Results on 24 molecules are retold here after patent publication US20230212116A1, “SARS-COV-2 MAIN PROTEASE INHIBITORS” (TEXAS A&M UNIVERSITY SYSTEM, priority 2020, published 2023).

For orientation: EC50 means the concentration needed to bring the measured effect to its halfway point. One may read the IC50 as the concentration that gives 50% inhibition.

The first test concerns SARS-CoV-2. In words: microbe, parasite or virus in culture. To be noted: Severe acute respiratory syndrome coronavirus 2, Vero C1008, Vero E6 cells, plaque reduction; read-out: antiviral EC50. It is filed as cell-based.
As to `CC(C)[C@H](NC(=O)OCc1ccccc1)C(=O)N[C@@H](CC1CCCCC1)C(=O)N[C@H](C=O)C[C@@H]1CCNC1=O` [MPI5, benzyl ((S)-1-(((S)-3-cyclohexyl-1-oxo-1-(((S)-1-oxo-3-((S)-2-oxopyrrolidin-3-yl)propan-2-yl)amino)propan-2-yl)amino)-3-methyl-1-oxobutan-2-yl)carbamate], the EC50 came out at 0.073 µM.

The test is the same for the next values; noted with them: Severe acute respiratory syndrome coronavirus 2, Vero C1008, read-out: antiviral EC50, Vero E6 cells, plaque reduction.
Consider `CC(C)C[C@H](NC(=O)[C@@H](NC(=O)OCc1ccccc1)[C@@H](C)OC(C)(C)C)C(=O)N[C@H](C=O)C[C@@H]1CCNC1=O` [MPI6, benzyl ((2S,3R)-3-(tert-butoxy)-1-(((S)-4-methyl-1-oxo-1-(((S)-1-oxo-3-((S)-2-oxopyrrolidin-3-yl)propan-2-yl)amino)pentan-2-yl)amino)-1-oxobutan-2-yl)carbamate], for which the EC50 came to 0.209 µM.

A further test concerns SARS-CoV-2.
Test: not given
Format: cell-based. To be noted: A549/ACE2 cells; tested 80 nM to 10 μM.
Consider `O=C[C@H](C[C@@H]1CCNC1=O)NC(=O)[C@H](CC1CCCCC1)NC(=O)c1cc2ccccc2[nH]1` [MPI10, N-((S)-3-cyclohexyl-1-oxo-1-(((S)-1-oxo-3-((S)-2-oxopyrrolidin-3-yl)propan-2-yl)amino)propan-2-yl)-1H-indole-2-carboxamide, reference compound], for which the “concentration of complete abolition of SARS-CoV-2-induced CPE” value (shortened to “concentration”) is on record as “potency similar to that shown in Vero E6 cells”.

The next test concerns SARS-CoV-2.
Test: not given
It is filed as cell-based.
Conditions: not given
Turning to `CC(C)C[C@H](NC(=O)[C@@H](NC(=O)OCc1ccccc1)C(C)C)C(=O)N[C@H](C=O)C[C@@H]1CCNC1=O` [MPI3, benzyl ((S)-3-methyl-1-(((S)-4-methyl-1-oxo-1-(((S)-1-oxo-3-((S)-2-oxopyrrolidin-3-yl)propan-2-yl)amino)pentan-2-yl)amino)-1-oxobutan-2-yl)carbamate], the “concentration” value was “not able to completely prevent CPE at all tested concentrations”.

The same test, now with this note: Vero E6 cells; tested 80 nM to 10 μM, two repeats.
`O=C[C@H](C[C@@H]1CCNC1=O)NC(=O)[C@H](CC1CCCCC1)NC(=O)c1cc2ccccc2[nH]1` [MPI10, N-((S)-3-cyclohexyl-1-oxo-1-(((S)-1-oxo-3-((S)-2-oxopyrrolidin-3-yl)propan-2-yl)amino)propan-2-yl)-1H-indole-2-carboxamide, reference compound]: the “concentration” value amounted to 10 µM.
On to `CC(C)C[C@H](NC(=O)OCc1ccccc1)C(=O)N[C@@H](CC1CCNC1=O)C(O)S(=O)(=O)O` (stereo partly drawn) [GC376, (2S)-2-((S)-2-(((benzyloxy)carbonyl)amino)-4-methylpentanamido)-1-hydroxy-3-(2-oxopyrrolidin-3-yl)propane-1-sulfonic acid, reference compound], for which the “concentration” value was 10 µM.
The same measure, in the same setting: with `CC(C)[C@H](NC(=O)OCc1ccccc1)C(=O)N[C@@H](CC1CCCCC1)C(=O)N[C@H](C=O)C[C@@H]1CCNC1=O` [MPI5, benzyl ((S)-1-(((S)-3-cyclohexyl-1-oxo-1-(((S)-1-oxo-3-((S)-2-oxopyrrolidin-3-yl)propan-2-yl)amino)propan-2-yl)amino)-3-methyl-1-oxobutan-2-yl)carbamate] the figure was 5 µM.

In a further test the target is SARS-CoV-2 M^Pro (Severe acute respiratory syndrome coronavirus 2, UniProt P0DTD1). In words: biochemical. Format: biochemical.
Conditions: not given
On to `CC(C)C[C@H](NC(=O)OCc1ccccc1)C(=O)NN(CCC(N)=O)C(=O)Oc1ccc(F)cc1` [MPI47, 4-fluorophenyl 1-(3-amino-3-oxopropyl)-2-(((benzyloxy)carbonyl)-L-leucyl)hydrazine-1-carboxylate], for which the midpoint of inhibition, the IC50, lay at 1.04 µM.
Same read-out and setting: next, `CC1(C)[C@@H]2[C@@H](C(=O)N[C@H](C=O)C[C@@H]3CCNC3=O)N(C(=O)[C@H](Cc3ccccc3)NC(=O)OCc3ccccc3)C[C@@H]21` [MPI94, benzyl ((S)-1-((1R,2S,5S)-6,6-dimethyl-2-(((S)-1-oxo-3-((S)-2-oxopyrrolidin-3-yl)propan-2-yl)carbamoyl)-3-azabicyclo[3.1.0]hexan-3-yl)-1-oxo-3-phenylpropan-2-yl)carbamate]: 0.267 ± 0.044 µM.

Staying with this test, now noted: 20 nM enzyme (10 nM for MPI3), 10 μM substrate, 37° C., 30 min enzyme-inhibitor incubation.
Regarding `CC(C)[C@H](NC(=O)OCc1ccccc1)C(=O)N[C@@H](Cc1cccs1)C(=O)N[C@H](C=O)C[C@@H]1CCNC1=O` [MPI13, Benzyl ((S)-3-methyl-1-oxo-1-(((S)-1-oxo-1-(((S)-1-oxo-3-((S)-2-oxopyrrolidin-3-yl)propan-2-yl)amino)-3-(thiophen-2-yl)propan-2-yl)amino)butan-2-yl)carbamate], the “Enzymatic IC50” value is recorded as “(insoluble)”.

Still in this test, the particulars now being: read-out: Enzymatic IC50.
Consider `CC(C)C[C@H](NC(=O)OCc1ccccc1)C(=O)NN(CCC(N)=O)C(=O)[C@@H](C)Cl` [MPI39, benzyl ((S)-1-(2-(3-amino-3-oxopropyl)-2-((R)-2-chloropropanoyl)hydrazineyl)-4-methyl-1-oxopentan-2-yl)carbamate], for which the IC50 stood at 5.038 ± 0.013 µM.
On the same count and under the same terms, with `C[C@@H](OC(C)(C)C)[C@H](NC(=O)OCc1ccccc1)C(=O)N[C@@H](CC1CCCCC1)C(=O)N[C@@H](C[C@@H]1CCNC1=O)C(=O)C(N)=O` [MPI86, benzyl ((2S,3R)-1-(((S)-1-(((S)-4-amino-3,4-dioxo-1-((S)-2-oxopyrrolidin-3-yl)butan-2-yl)amino)-3-cyclohexyl-1-oxopropan-2-yl)amino)-3-(tert-butoxy)-1-oxobutan-2-yl)carbamate] the figure was 0.167 ± 0.014 µM.
The same measure, in the same setting: next, `CC(C)C[C@H](NC(=O)OCc1ccccc1)C(=O)NN(CCC(N)=O)C(=O)/C=C/CN(C)C` [MPI43, benzyl (S,E)-(1-(2-(3-amino-3-oxopropyl)-2-(4-(dimethylamino)but-2-enoyl)hydrazineyl)-4-methyl-1-oxopentan-2-yl)carbamate]: more than 10 µM; `C[C@@H](OC(C)(C)C)[C@H](NC(=O)OCc1ccccc1)C(=O)N[C@@H](CC1CCCCC1)C(=O)N[C@@H](C[C@@H]1CCNC1=O)C(O)S(=O)(=O)O` (stereo partly drawn) [MPI65, sodium (5S,8S,11S)-5-((R)-1-(tert-butoxy)ethyl)-8-(cyclohexylmethyl)-12-hydroxy-3,6,9-trioxo-11-(((S)-2-oxopyrrolidin-3-yl)methyl)-1-phenyl-2-oxa-4,7,10-triazadodecane-12-sulfonate]: 0.294 ± 0.015 µM; `C[C@@H](OC(C)(C)C)[C@H](NC(=O)OCc1cccc(F)c1)C(=O)N[C@@H](CC1CCCCC1)C(=O)N[C@H](C=O)C[C@@H]1CCNC1=O` [MPI102, 3-fluorobenzyl ((2S,3R)-3-(tert-butoxy)-1-(((S)-3-cyclohexyl-1-oxo-1-(((S)-1-oxo-3-((S)-2-oxopyrrolidin-3-yl)propan-2-yl)amino)propan-2-yl)amino)-1-oxobutan-2-yl)carbamate]: 0.307 µM.
Still for that read-out and setting: with `C=CC(=O)N(CCC(N)=O)NC(=O)[C@@H]1[C@@H]2[C@H](CN1C(=O)[C@@H](NC(=O)NC(C)(C)C)[C@@H](C)OC(C)(C)C)C2(C)C` [MPI70, 3-(1-acryloyl-2-((1R,2S,5S)-3-(O-(tert-butyl)-N-(tert-butylcarbamoyl)-L-threonyl)-6,6-dimethyl-3-azabicyclo[3.1.0]hexane-2-carbonyl)hydrazineyl)propanamide] the figure was 0.136 ± 0.017 µM.
Consider `CC(C)[C@H](NC(=O)NC(C)(C)C)C(=O)N[C@@H](CC1CC1)C(=O)N[C@H](C=O)C[C@@H]1CCNC1=O` [MPI64, (S)-2-(3-(tert-butyl)ureido)-N-((S)-3-cyclopropyl-1-oxo-1-(((S)-1-oxo-3-((S)-2-oxopyrrolidin-3-yl)propan-2-yl)amino)propan-2-yl)-3-methylbutanamide], for which the IC50 turned out to be 0.0261 ± 0.0014 µM.
For `CC(C)C[C@H](NC(=O)OCc1ccccc1)C(=O)NN(CCC(N)=O)C(=O)c1cc([N+](=O)[O-])ccc1F` [MPI41, benzyl (S)-(1-(2-(3-amino-3-oxopropyl)-2-(2-fluoro-5-nitrobenzoyl)hydrazineyl)-4-methyl-1-oxopentan-2-yl)carbamate], the half-maximal inhibitory concentration (IC50) was 39 µM.
Still for that read-out and setting: with `CC(C)C[C@H](NC(=O)OCc1ccccc1)C(=O)NN(CCC(N)=O)C(=O)[C@H](C)Cl` [MPI40, benzyl ((S)-1-(2-(3-amino-3-oxopropyl)-2-((S)-2-chloropropanoyl)hydrazineyl)-4-methyl-1-oxopentan-2-yl)carbamate] the figure was 1.62 ± 0.153 µM.
As for `C[C@@H](OC(C)(C)C)[C@H](NC(=O)OCc1ccc(F)cc1)C(=O)N[C@@H](CC1CCCCC1)C(=O)N[C@H](C=O)C[C@@H]1CCNC1=O` [MPI103, 4-fluorobenzyl ((2S,3R)-3-(tert-butoxy)-1-(((S)-3-cyclohexyl-1-oxo-1-(((S)-1-oxo-3-((S)-2-oxopyrrolidin-3-yl)propan-2-yl)amino)propan-2-yl)amino)-1-oxobutan-2-yl)carbamate], the IC50 was determined as 0.196 ± 0.031 µM.
Same read-out and setting: with `CC(C)C[C@H](NC(=O)OCc1ccccc1)C(=O)NN(CCC(N)=O)C(=O)COc1ccc(F)cc1` [MPI45, benzyl (S)-(1-(2-(3-amino-3-oxopropyl)-2-(2-(4-fluorophenoxy)acetyl)hydrazineyl)-4-methyl-1-oxopentan-2-yl)carbamate] the figure was more than 10 µM; with `C=CC(=O)N(CCC(N)=O)NC(=O)[C@H](CC(C)C)NC(=O)OCc1ccccc1` [MPI38, benzyl (S)-(1-(2-acryloyl-2-(3-amino-3-oxopropyl)hydrazineyl)-4-methyl-1-oxopentan-2-yl)carbamate], 0.64 µM.
On the same count and under the same terms, with `C=CC(=O)N(CCC(N)=O)NC(=O)[C@H](CC1CCCCC1)NC(=O)[C@@H](NC(=O)OCc1ccccc1)[C@@H](C)OC(C)(C)C` [MPI52, benzyl ((2S,3R)-1-(((S)-1-(2-acryloyl-2-(3-amino-3-oxopropyl)hydrazineyl)-3-cyclohexyl-1-oxopropan-2-yl)amino)-3-(tert-butoxy)-1-oxobutan-2-yl)carbamate] the figure was 0.061 ± 0.0012 µM.
Still for that read-out and setting: next, `CC(C)C[C@H](NC(=O)OCc1ccccc1)C(=O)NN(CCC(N)=O)C(=O)COc1ccc([N+](=O)[O-])cc1` [MPI44, benzyl (S)-(1-(2-(3-amino-3-oxopropyl)-2-(2-(4-nitrophenoxy)acetyl)hydrazineyl)-4-methyl-1-oxopentan-2-yl)carbamate]: more than 10 µM.
On to `CCC(=O)N(CCC(N)=O)NC(=O)[C@H](CC(C)C)NC(=O)OCc1ccccc1` [MPI36, benzyl (S)-(1-(2-(3-amino-3-oxopropyl)-2-propionylhydrazineyl)-4-methyl-1-oxopentan-2-yl)carbamate], for which the IC50 was more than 10 µM.
Still for that read-out and setting: next, `C[C@@H](OC(C)(C)C)[C@H](NC(=O)NC(C)(C)C)C(=O)N1C[C@H]2[C@@H]([C@H]1C(=O)N[C@H](C=O)C[C@@H]1CCNC1=O)C2(C)C` [MPI68, (1R,2S,5S)-3-(O-(tert-butyl)-N-(tert-butylcarbamoyl)-L-threonyl)-6,6-dimethyl-N-((S)-1-oxo-3-((S)-2-oxopyrrolidin-3-yl)propan-2-yl)-3-azabicyclo[3.1.0]hexane-2-carboxamide]: 0.097 µM.
